Here are results for 48 compounds from PubChem BioAssay AID179 (DTP/NCI, 2004).

Molecules are shown by their SMILES. The source made the active and inactive calls.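 The calls were made as follows: active = compounds giving half or more protection of infected cells from virus-caused growth loss, again on retest; inactive = the rest.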

The assay concerns CEM cells HIV-1 protection, formazan growth assay. The assay is described as follows: NCI AIDS Antiviral Assay. The conditions noted are these: for IC50: measured here: growth of uninfected CEM cells. Put shortly: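 Steps: treat uninfected and HIV-1-infected human CEM cells at five drug levels; quantify growth by soluble formazan; retest any compound reaching 50% protection; classify actives from the retest.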

As a reminder, the EC50 is the midpoint of the concentration-response curve. The IC50 is the point on the concentration scale where inhibition reaches its midpoint. Regarding `CCOC1NC(/N=C/c2ccc(OC)cc2)=C(C#N)C1C#N` (configuration not stated), the EC50 is greater than 200 µM and the IC50 was 24.5 µM.
Take `COC1/C=C/OC2(C)Oc3c(C)c(O)c4c(O)c(c(C=NN5CCCCCCCCCC5)c(O)c4c3C2=O)NC(=O)/C(C)=C/C=C/C(C)C(O)C(C)C(O)C(C)C(OC(C)=O)C1C` (configuration not stated): the EC50 is greater than 200 µM and the half-maximal inhibitory concentration (IC50) turned out to be 6.17 µM.
For `COc1ccc(C2C(Cl)C(=O)N2NC(=O)c2ccc(N)cc2)cc1OC` (configuration not stated), in that order: greater than 200 µM and 8.51 µM.
For `CC(C)CCC[C@@H](C)C1CCC2[C@@H]3CC(OS(=O)(=O)O)C4C[C@@H](O)CC[C@]4(C)C3CC[C@@]21C` (some centres not stated), in that order: greater than 49 µM and greater than 49 µM.
The corresponding values for `CC1(C)Nc2cc3c(cc2-n2cccc21)oc1ccccc13` are greater than 200 µM and 9.12 µM.
Consider `COc1ccc2c(c1)CCN=C2Cc1ccccc1CCCl`, for which the EC50 was greater than 200 µM and the IC50 is 26.3 µM.
On to `FC1(F)[Se]C2C3CCC(C3)C2C1(F)F` (configuration not stated), for which the EC50 was greater than 200 µM and the IC50 is greater than 200 µM.
Take `CNC(=S)NNC(=O)c1c(C)nc2sccn12`: the EC50 was greater than 933 µM and the IC50 was 575 µM.
For `CCN(CC)CCN1C=CC(C)C(C(=O)O)C1C(N)=O` (configuration not stated), in that order: greater than 100 µM and greater than 100 µM.
`Cc1cc(Cc2cc(C)cc(S(=O)(=O)O)c2O)c(O)c(S(=O)(=O)O)c1`: the EC50 is 209 µM and the IC50 amounted to 646 µM.
`N=C1CSC2=NC3=C(CCC/C3=C\c3ccccc3)C(c3ccccc3)N12` (configuration not stated): the EC50 was greater than 18.6 µM and the IC50 is greater than 18.6 µM.
As to `Clc1ccc(Nc2nnc(CNc3ccc(-c4nnc(Nc5ccc(Cl)cc5)o4)cc3)o2)cc1`, the EC50 was greater than 200 µM and the 50% inhibitory concentration (IC50) was 1.23 µM.
Turning to `CC(=O)[O-].CCCCCCC/C=N/[N-]C(=O)c1ccncc1.[Co+2].[OH3+].[OH3+].[OH3+].[OH3+]`, the EC50 was greater than 200 µM and the IC50 is 115 µM.
For `C=C(CCC/C(C)=C/C=C/[C@]1(C)CCCc2ccoc21)CC(=O)O`, in that order: 16.2 µM and greater than 200 µM.
In the case of `COC(=O)C(C(=O)C(=O)Nc1ccccc1C)c1nc2ccc([N+](=O)[O-])cc2[nH]c1=O` (configuration not stated), the result was inactive.
With `O=C1CCSc2nc(-c3ccc4c(c3)OCO4)nn21`, the EC50 was greater than 200 µM and the IC50 was greater than 200 µM.
For the compound `CCC(=O)N1C(=O)C(C)C23c4cccc([N+](=O)[O-])c4C(=O)N2CCCN13` (configuration not stated), the EC50 is greater than 692 µM and the half-maximal inhibitory concentration (IC50) was greater than 692 µM.
On to `CCOc1ccc(N=Cc2cc(OC)c(OC)c(OC)c2)cc1`, for which the EC50 was greater than 60.3 µM and the IC50 was greater than 60.3 µM.
`CC(C)c1ccccc1NC(=O)C(=O)Cc1nc2ccccc2s1`: the outcome was inactive.
As for `CC(C)(C)N/N=C(\C(=O)Nc1ccc([N+](=O)[O-])cc1[N+](=O)[O-])c1nc2ccc([N+](=O)[O-])cc2[nH]c1=O`, the EC50 is greater than 14.5 µM and the concentration for half-maximal inhibition (IC50) is greater than 14.5 µM.
With `CCCCC(C(=O)O)C1=CCCCC1` (configuration not stated), the result was inactive.
For the compound `COc1ccc(/C=C2\N=C(N/N=C\C(O)C(O)C(O)C(O)CO)NC2=O)cc1` (configuration not stated), the EC50 was greater than 200 µM and the IC50 is 107 µM.
`CCOC(=O)c1nc2ccccc2n(CC)c1=O`: the EC50 was greater than 200 µM and the half-maximal inhibitory concentration (IC50) was found to be 79.4 µM.
Consider `CCc1c2[n-]c(c1C)/C=c1\[n-]/c(c(C)c1CC)=C\c1[n-]c(c(CCC(=O)O)c1C)/C=c1\[n-]/c(c(C)c1CCC(=O)O)=C\2.[Zn]`, for which the EC50 was greater than 21.4 µM and the IC50 was found to be 13.5 µM.
The corresponding values for `CC(C)(C)C1=NC(S)NC(CCC(=O)Nc2ccccc2[N+](=O)[O-])=C1` (configuration not stated) are greater than 692 µM and greater than 692 µM.
Take `C=C(C)[C@@H]1CC[C@]2(COC(=O)CC(C)CC(=O)O)CC[C@]3(C)[C@H](CC[C@@H]4[C@@]5(C)CC[C@H](OC(=O)CC(C)CC(=O)O)C(C)(C)[C@@H]5CC[C@]43C)[C@@H]12` (some centres not stated): the EC50 was greater than 200 µM and the IC50 was 19.1 µM.
For `Cc1c2c(cn1C)NC(=O)CN=C2c1ccccc1`, in that order: greater than 200 µM and greater than 200 µM.
As to `NC(=O)C12C(=O)NC(=O)C1(C(=O)O)C2C1CCCCC1` (configuration not stated), the outcome was inactive.
`O=C(CC1(O)C(=O)Nc2c(Cl)ccc(Cl)c21)c1ccc2ccccc2c1` (configuration not stated): the EC50 is greater than 245 µM and the 50% inhibitory concentration (IC50) worked out at 14.5 µM.
For `C/C(=N/Nc1ccc([N+](=O)[O-])cc1[N+](=O)[O-])C(CC(C(=O)Nc1ccccc1C)/C(C)=N\Nc1ccc([N+](=O)[O-])cc1[N+](=O)[O-])C(=O)Nc1ccccc1C` (configuration not stated), in that order: greater than 9.55 µM and greater than 9.55 µM.
The corresponding values for `CCCN1C(=O)CN(S(=O)(=O)c2ccc(Cl)cc2)C1=O` are greater than 200 µM and greater than 200 µM.
For `COc1ccc(N/C=C2\C(=O)CCc3c2oc2cc(Cl)c(O)c(Cl)c32)cc1`, in that order: greater than 200 µM and 28.8 µM.
In the case of `CC(C)=C1C2C(C13C(=O)OC(C)(C)OC3=O)C2(C)C` (configuration not stated), the EC50 was greater than 490 µM and the IC50 is greater than 490 µM.
As for `COc1cc(C2SC(N)=Nc3c2c(C)nn3C(=O)c2ccccc2O)ccc1O` (configuration not stated), the EC50 is greater than 2 µM and the IC50 was 0.0977 µM.
The corresponding values for `CC1(C)CC(/C=C2/OC(=O)c3ccccc32)=C(C(N)=O)C(=O)O1` are greater than 83.2 µM and greater than 83.2 µM.
For `Cc1ccc(NC(=O)/C(Cc2nc3ccc([N+](=O)[O-])cc3[nH]c2=O)=N\NC(=O)C[n+]2ccccc2)c(C)c1`, in that order: greater than 234 µM and 170 µM.
For `Cc1cc2c(C)nn(Cc3ccccc3)c2c(C(=O)O)c1C`, in that order: greater than 123 µM and greater than 123 µM.
Take `O=S(=O)(O)C(Cc1nc2ccccc2[nH]1)S(=O)(=O)OCCC1S(=O)(=O)OCCOS1(=O)=O` (configuration not stated): the EC50 was greater than 200 µM and the half-inhibitory concentration (IC50) came out at 107 µM.
Regarding `Nc1nc(Nc2ccc(Cl)c(Cl)c2)nc2nc[nH]c12`, the EC50 was greater than 200 µM and the IC50 turned out to be 20.9 µM.
As for `COc1ccc2c(c1)CCC(c1ccccc1)=C2c1ccc(OCCN2CCCC2)cc1`, the EC50 is greater than 200 µM and the IC50 came to 3.72 µM.
For `Nc1c(Br)cc2snc3c2c1C(=O)c1ccccc1-3`, in that order: greater than 15.8 µM and 8.51 µM.
Consider `O=C1CCCSC(=O)N1Cc1ccccc1`, for which the EC50 is greater than 200 µM and the IC50 was greater than 200 µM.
Regarding `CC(O)C(N=Cc1ccccc1[O-])C(=O)[O-].CC(O)C(N=Cc1ccccc1[O-])C(=O)[O-].[Co+2]` (configuration not stated), the EC50 is greater than 363 µM and the IC50 came out at 64.6 µM.
With `COc1ccc(/C=N/NS(=O)(=O)c2ccc(NC(C)=O)cc2)cc1`, the EC50 is greater than 525 µM and the 50% inhibitory concentration (IC50) was greater than 525 µM.
Turning to `NCCCNCCNCCCN`, the EC50 was greater than 200 µM and the IC50 was greater than 200 µM.
On to `O=C(CCCCCCCCC(=O)OCCCn1cc(C(=O)NC(=O)OCc2ccccc2)c(=O)[nH]c1=O)OCCCn1cc(C(=O)NC(=O)OCc2ccccc2)c(=O)[nH]c1=O`, for which the EC50 was greater than 15.8 µM and the 50% inhibitory concentration (IC50) is greater than 15.8 µM.
In the case of `CCN(CC)CCCNc1ncnc2c1C(c1ccccc1)c1ccccc1-2` (configuration not stated), the EC50 is greater than 676 µM and the IC50 is 33.1 µM.
The corresponding values for `CC(C)(C)C1COP(=O)(c2ccccc2)N(c2ccccc2)C1` (configuration not stated) are greater than 200 µM and 38 µM.
